{"source": "patent US10287298B2", "about": "“Nitrogen-containing analogs of salinomycin, synthesis and use against cancer stem cells and malaria” (Centre National de la Recherche Scientifique (CNRS), priority 2014, dated 2019)", "key": {"[1]": {"tested_on": "HMLER CD24+ cells", "experiment": "Cell viability assay (CellTiter-Blue), IC50 assessment", "type": "cell-based", "conditions": "Homo sapiens, read-out: IC50 CD24+", "procedure": "(§1) FIG. 1 represents viability of HMLER CD24− cells (full line) and HMLER CD24+ cells (dotted line) at different concentration of salinomycine (1A), AM5 […] or AM13 (1D).\n(§2) Cell viability assay was carried out by plating 1000 cells per well in 96-well plates. NAC (2 mM, A9165 Sigma) or DFO (1 mM) were pretreated 2 hours prior to the compound treatment. CellTiter-Blue® Reagent (Promega; G3582) (20 μl/well) was added after 24, 48, or 72 hours treatment and cells were incubated for 1 hour before recording fluorescence (560(20)Ex/590(10)Em) using a Perkin Elmer Wallac 1420 Victor2 Microplate Reader."}, "[2]": {"tested_on": "HMLER CD24− cells", "experiment": "Cell proliferation and formation of mammospheres", "type": "cell-based, Human", "source_text": "FIG. 2 is a representative phase contrast photomicrographs of mammospheres formed after 11 days in the absence of any added compound (Control) or in the presence of a defined amount of salinomycine, AM5, AM9 or AM13. […] The size of the mammospheres is correlated with progenitor cell proliferation, whereas the number of mammospheres formed after serial passages at clonal density is correlated with the self-renewal capacity of primitive Cancer Stem Cells. […]\nFIG. 9 represents images of the third generation of mammospheres formed from individual HMLER CD24low cells treated during 7 days with the indicated drug. The size of the mammospheres is correlated with progenitor cell proliferation capacity, whereas the number of mammospheres formed after serial passages at clonal density is correlated with the self-renewal capacity of primitive Cancer Stem Cells.\nAM5, AM9, AM13 and salinomycine were assessed for their capability to inhibit cell proliferation and formation of mammospheres. […]\nAM5 and AM23 and salinomycine were assessed for their capability to inhibit cell proliferation and formation of mammospheres."}, "[3]": {"tested_on": "HMLER CD24− cells", "experiment": "Cell viability assay (CellTiter-Blue), IC50 assessment", "type": "cell-based, Human", "procedure": "as §1, §2"}, "[4]": {"tested_on": "HMLER CD24low cells", "experiment": "Reactive Oxygen Species (ROS) levels by flow cytometry (CM-H2DCF-DA)", "type": "cell-based, Human", "conditions": "30 nM, 500 nM or 1 μM, 48 h", "procedure": "Reactive Oxygen Species (ROS) levels were measured by flow cytometry or by confocal scanning immunofluorescence microscopy using CM-H2DCF-DA (C6827, invitrogen). Briefly, U2OS and HMLER CD24low cells were treated as indicated in FIG. 11 (30 nM, 500 nM or 1 μM of salinomycine, AM5 or AM23 or untreated during 48 h). Then, these cells were trypsined and incubated with 5 μM CM-H2DCF-DA at 37° C. for 40 min, washed once with PBS and were counterstained with DAPI (0.5 μg/ml) to exclude non-viable cells. The mean fluorescence intensity was determined as ROS production by flow cytometry with LSRFortessa™ cytometer (BD Bioscience, San Jose, Calif.). For immunofluorescence microscopy analysis, cells were seeded on coverslips and were treated with salinomycine derivatives (injection in culture medium then treatment during 24 h, 48 h and 72 h). LysoTracker® Red DND-99 (L-7528, Life technologies) was used to visualize lysosomes. Then, cells were fixed with 4% PFA/PBS. DAPI was used to visualize nuclear DNA. Cell images were obtained using a Deltavision real-time microscope (Applied Precision) or an ApoTome.2 microscope (Zeiss). ImageJ was used for further image processing.\nFACS analysis of ROS in cells treated for 48 h is represented in FIG. 17."}, "[5]": {"tested_on": "MDA-MB-231 cells", "experiment": "Dead cells by DIOC6(3)/DAPI test with cathepsine B inhibitor", "type": "cell-based, Human", "conditions": "500 nM; COA74-Me 30 μM; 48 h, 96 h, 108 h", "procedure": "From the treatment, dead cells were assessed by DIOC6(3)/DAPI test and analyzed by flow cytometry."}, "[6]": {"tested_on": "SW620", "experiment": "Cell death IC50, Annexin V-FITC/PI flow cytometry", "type": "cell-based", "conditions": "Homo sapiens, SW-620, 108 h, read-out: IC50 SW620", "procedure": "(§3) The cells were seeded in a 6-well plate at density 5.105 cells/well and cultured overnight. The cells were then treated with various concentration (15, 30, 100, 500, 1000 and 10.000 nM) of salinomycine, AM5 and AM23 for 72 h, 96 h and 108 h. After treatment, cell death was quantified using Annexin V-FITC/Propidium Iodide (PI) assay according to the manufacturer's protocol (FITC Annexin V Apoptosis Detection Kit II, 556570, BD Pharmingen™) and analyzed by a LSRFortessa™ flow cytometer (BD Bioscience, San Jose, Calif.). The data were processed using Cell Quest software (BD Biosciences). Dose-response cell death curves were determined for indicated time.\n(§4) For tumor cells, the cells are classified in function of their sensitivity of drugs. Here, the most sensitive cells are incubated for 72 h, the middle sensitive cells for 96 h and the less sensitive or resistant cells are incubated for 108 h with drug at several concentrations.\n(§5) Concentrations of 30 nM, 500 nm and 1 μM were used for determining the IC50 of drugs.\n(§6) Intervals][…]] mean that IC50 is included in this interval with exclusion of the valor 30 nM.\n(§7) The SW620 and SW480 cell lines are from colon tumors."}, "[7]": {"tested_on": "SW480", "experiment": "Cell death IC50, Annexin V-FITC/PI flow cytometry", "type": "cell-based", "conditions": "Homo sapiens, SW480, 108 h, read-out: IC50 SW480", "procedure": "as §3, §4, §5, §6, §7"}, "[8]": {"tested_on": "HMLER shECAD", "experiment": "Cell death IC50, Annexin V-FITC/PI flow cytometry", "type": "cell-based", "conditions": "Homo sapiens, 72 h, read-out: IC50 HMLER shECAD", "procedure": "as §3, §4, §5, §6"}, "[9]": {"tested_on": "HMLER GFP", "experiment": "Cell death IC50, Annexin V-FITC/PI flow cytometry", "type": "cell-based", "conditions": "Homo sapiens; 1rst sensibility (72 h)", "procedure": "as §3, §4, §5, §6"}, "[10]": {"tested_on": "HBL100", "experiment": "Cell death IC50, Annexin V-FITC/PI flow cytometry", "type": "cell-based", "conditions": "Homo sapiens, HBL-100, read-out: IC50 HBL100", "procedure": "as §3, §4, §5, §6"}, "[11]": {"tested_on": "BT20", "experiment": "Cell death IC50, Annexin V-FITC/PI flow cytometry", "type": "cell-based", "conditions": "Homo sapiens, BT-20, 108 h, read-out: IC50 BT20", "procedure": "as §3, §4, §5, §6"}, "[12]": {"tested_on": "MDA-MB-231", "experiment": "Cell death IC50, Annexin V-FITC/PI flow cytometry", "type": "cell-based", "conditions": "Homo sapiens, MDA-MB-231, 96 h, read-out: IC50 MDA-MB-231", "procedure": "as §3, §4, §5, §6"}, "[13]": {"tested_on": "Zr75.1", "experiment": "Cell death IC50, Annexin V-FITC/PI flow cytometry", "type": "cell-based", "conditions": "Homo sapiens, ZR-75-1, 72 h, read-out: IC50 Zr75.1", "procedure": "as §3, §4, §5, §6"}, "[14]": {"tested_on": "MCF-7", "experiment": "Cell death IC50, Annexin V-FITC/PI flow cytometry", "type": "cell-based", "conditions": "Homo sapiens, MCF7, 72 h, read-out: IC50 MCF-7", "procedure": "as §3, §4, §5, §6"}, "[15]": {"tested_on": "BT474", "experiment": "Cell death IC50, Annexin V-FITC/PI flow cytometry", "type": "cell-based", "conditions": "Homo sapiens, BT-474, 96 h, read-out: IC50 BT474", "procedure": "as §3, §4, §5, §6"}, "[16]": {"tested_on": "HMLER ID2", "experiment": "Cell death IC50, Annexin V-FITC/PI flow cytometry", "type": "cell-based", "conditions": "Homo sapiens, 72 h, read-out: IC50 HMLER ID2", "procedure": "as §3, §4, §5, §6"}, "[17]": {"tested_on": "MDA-MB-134", "experiment": "Cell death IC50, Annexin V-FITC/PI flow cytometry", "type": "cell-based", "conditions": "Homo sapiens, 96 h, read-out: IC50 MDA-MB-134", "procedure": "as §3, §4, §5, §6"}, "[18]": {"tested_on": "HMLE W2", "experiment": "Cell death IC50, Annexin V-FITC/PI flow cytometry", "type": "cell-based", "conditions": "Homo sapiens, read-out: IC50 HMLE W2", "procedure": "as §3, §4, §5, §6"}, "[19]": {"tested_on": "T47D", "experiment": "Cell death IC50, Annexin V-FITC/PI flow cytometry", "type": "cell-based", "conditions": "Homo sapiens, Resistant (108 h)", "procedure": "as §3, §4, §5, §6"}, "[20]": {"tested_on": "HMLER CD24low", "experiment": "Cell death IC50, Annexin V-FITC/PI flow cytometry", "type": "cell-based", "conditions": "Homo sapiens, 72 h, read-out: IC50 HMLER CD24low", "procedure": "as §3, §4, §5, §6"}, "[21]": {"tested_on": "MDA-MD-157", "experiment": "Cell death IC50, Annexin V-FITC/PI flow cytometry", "type": "cell-based", "conditions": "Homo sapiens, 96 h, read-out: IC50 MDA-MD-157", "procedure": "as §3, §4, §5, §6"}, "[22]": {"tested_on": "MDA-MB-361", "experiment": "Cell death IC50, Annexin V-FITC/PI flow cytometry", "type": "cell-based", "conditions": "Homo sapiens, MDA-MB-361, 96 h, read-out: IC50 MDA-MB-361", "procedure": "as §3, §4, §5, §6"}, "[23]": {"tested_on": "BT549", "experiment": "Cell death IC50, Annexin V-FITC/PI flow cytometry", "type": "cell-based", "conditions": "Homo sapiens, BT-549, 108 h, read-out: IC50 BT549", "procedure": "as §3, §4, §5, §6"}, "[24]": {"conditions": "third generation of mammospheres, HMLER CD24low cells treated 7 days"}}, "data": [{"smiles": "CCC(C(=O)O)[C@H]1CC[C@H](C)C([C@@H](C)[C@H](O)[C@H](C)C(=O)[C@H](CC)[C@H]2O[C@]3(C=C[C@@H](NC4CC4)[C@]4(CC[C@@](C)([C@H]5CC[C@](O)(CC)[C@H](C)O5)O4)O3)[C@H](C)C[C@@H]2C)O1", "note": "(some centres unmarked) [AM23, Sal-cyclopropylamine]", "values": [{"measurement": "IC50", "setting": "[1]", "result": 1200, "unit": "nM"}, {"measurement": "inhibition of cell proliferation, efficacy in comparison with salinomycine", "setting": "[2]; at 30 nM", "result": "ten-fold improved efficacy"}, {"measurement": "number of mammospheres", "setting": "[2]; [24]", "result": "reduced the number of mammospheres"}, {"measurement": "size of mammospheres", "setting": "[2]; [24]", "result": "reduced by the highest dose"}, {"measurement": "IC50", "setting": "[3]; Homo sapiens, read-out: IC50 CD24−", "result": 43, "unit": "nM"}, {"measurement": "activity against CD24 cells compared with salinomycine", "setting": "[3]; comparison of the IC50 results", "result": "significantly improved activity"}, {"measurement": "ROS induction", "setting": "[4]", "result": "induces ROS"}, {"measurement": "death of MDA-MB-231 cells in combination with cathepsine B inhibition", "setting": "[5]", "result": "combine themselves to induce the death"}, {"measurement": "IC50", "setting": "[6]", "result": "30 to 500", "unit": "nM"}, {"measurement": "IC50", "setting": "[7]", "result": "30 to 500", "unit": "nM"}, {"measurement": "IC50", "setting": "[8]", "result": 30, "unit": "nM"}, {"measurement": "IC50", "setting": "[9]", "result": 30, "unit": "nM"}, {"measurement": "IC50", "setting": "[10]", "result": "> 1000", "unit": "nM"}, {"measurement": "IC50", "setting": "[11]", "result": "30 to 500", "unit": "nM"}, {"measurement": "IC50", "setting": "[12]", "result": "> 1000", "unit": "nM"}, {"measurement": "IC50", "setting": "[13]", "result": "30 to 500", "unit": "nM"}, {"measurement": "IC50", "setting": "[14]", "result": "30 to 500", "unit": "nM"}, {"measurement": "IC50", "setting": "[15]", "result": "> 1000", "unit": "nM"}, {"measurement": "IC50", "setting": "[16]", "result": "< 30", "unit": "nM"}, {"measurement": "IC50", "setting": "[17]", "result": "> 1000", "unit": "nM"}, {"measurement": "IC50", "setting": "[18]", "result": 1000, "unit": "nM"}, {"measurement": "IC50", "setting": "[19]", "result": "> 1000", "unit": "nM"}, {"measurement": "IC50", "setting": "[20]", "result": "< 30", "unit": "nM"}, {"measurement": "IC50", "setting": "[21]", "result": "30 to 500", "unit": "nM"}, {"measurement": "IC50", "setting": "[22]", "result": 1000, "unit": "nM"}, {"measurement": "IC50", "setting": "[23]", "result": "> 1000", "unit": "nM"}]}]}
